One data set can be described thus: Solubility in water. Type of data set: physicochemical. To be noted: crystalline substance. An excerpt:
The formulations according to the invention of stanozolol in an aqueous carrier are therefore aqueous suspensions, and it is necessary to prevent the suspended crystals of the drug from causing mechanical lesions such as abrasions and erosions despite the pressures and friction generated by the movement of the joint on the surfaces of the cartilage and synovial membrane.

Data set [1] can be described thus: Persistence of stanozolol in the joint / synovial fluid after intrasynovial injection. In kind it is in vivo, horses and humans. An excerpt: A single intrasynovial injection of said formulations allows the stanozolol to be brought up to and maintained at pharmacologically active concentrations in the joint for 6-7 days, a period which is long enough to produce evident clinical benefits and fully compatible with long-term treatments.
Two examples of formulation of a typical preparation containing stanozolol administrable by the intrasynovial route to horses and humans, which remains in the synovial fluid for 5-7 days, one set out below: • a) Active ingredient: micronised stanozolol (having a prevalent population of particles with a diameter of less than 20 µm) 5 mg; Water for injectables q.s. to 1 ml. • b) Active ingredient: Micronised Stanozolol: (having a prevalent population of particles with diameter of less than 20 µm) 5 mg/ml

With `C[C@]12Cc3c[nH]nc3C[C@@H]1CC[C@@H]1[C@@H]2CC[C@@]2(C)[C@H]1CC[C@]2(C)O` [stanozolol], the solubility in water result in “Solubility in water” is on record as “insoluble in water”. Also, the “maintained at pharmacologically active concentrations in the joint” value in data set [1] (single intrasynovial injection of the micronised aqueous suspension formulations) is on record as 6-7 days. Besides, in data set [1] (typical preparation with micronised stanozolol 5 mg/ml, intrasynovial route, horses and humans), the “remains in the synovial fluid” value is 5 to 7 days.

(Values after EP1891940B1, “Intrasynovial formulations of stanozolol” (Acme Drugs S.r.l., priority 2006, dated 2008).)
